The text below walks through data of PMC4667193 (Scientific Reports, 2015).

The target of the test is T1, Rat M1 mAChR (Rattus norvegicus, UniProt P08482).
T1 construct: host or cells: CHO (CHO-K1) cells
T1 sequence (P08482 1-460): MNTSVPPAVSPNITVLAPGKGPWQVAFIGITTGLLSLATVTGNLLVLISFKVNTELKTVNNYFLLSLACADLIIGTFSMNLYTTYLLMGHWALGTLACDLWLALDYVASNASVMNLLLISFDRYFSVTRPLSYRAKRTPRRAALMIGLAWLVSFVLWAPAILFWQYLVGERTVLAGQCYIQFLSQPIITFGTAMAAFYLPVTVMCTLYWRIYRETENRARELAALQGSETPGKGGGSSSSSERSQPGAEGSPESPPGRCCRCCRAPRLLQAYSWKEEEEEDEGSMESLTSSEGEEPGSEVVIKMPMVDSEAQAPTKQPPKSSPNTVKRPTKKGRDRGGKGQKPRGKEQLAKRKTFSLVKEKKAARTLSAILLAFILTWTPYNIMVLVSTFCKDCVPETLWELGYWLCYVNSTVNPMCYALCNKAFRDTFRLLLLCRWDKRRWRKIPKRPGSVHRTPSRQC
The experiment in a line: calcium mobilization assay in CHO cells. It is filed as cell-based. How it is done: CHO cells expressing rM1, rM3 and rM5 were plated at 4 × 10^4 cells per well, whereas rM2 and rM4 were plated at 6 × 10^4 cells per well, in standard growth media (as described previously under “cell culture”) in 96-well plates 24 hours before assay and were incubated overnight at 37 °C in 5% CO2. […] Cells were incubated for 45 minutes (37 °C, 5% CO2) for dye loading. Fluo4-AM dye was removed, cells were washed and replaced with 40 μL of calcium assay buffer. AEME concentration-response curves were determined in single-add experiments. […] All compounds were dissolved in dimethyl sulfoxide (DMSO) and then in calcium assay buffer to obtain a final DMSO concentration of 0.3%. […] These values were fit using GraphPad Prism version 5.0 to determine EC50 values and Schild slope and pA2 in the Schild analyses.

SMILES strings stand for the structures. pEC50: −log10 of the molar value.

By pEC50 is commonly meant the EC50 on a negative log10 scale, so that one unit is a factor of ten. For the compound `COC(=O)C1=CC[C@@H]2CC[C@H]1N2C` [AEME, anhydroecgonine methyl ester], under “rat M1”, the mechanism of action entry was “partial agonist-activity”. Further, the “% of the maximum acetylcholine response” value (rat M1, agonist mode) was found to be 38.3%. Further, for the setting “rat M1, agonist mode (single-add)”, the pEC50 was < 4.00.
